Laboratory results as given in ChEMBL document CHEMBL5584275, “Design, Synthesis, and Evaluation of a New Chemotype Fluorescent Ligand for the P2Y2 Receptor” (ACS Med Chem Lett, 2024).

Experiments:
P2Y purinoceptor 2 [1] = target: T1, P2Y purinoceptor 2 (Homo sapiens, UniProt P41231)
Description: Binding affinity to NanoLuc-fused P2Y2R (unknown origin) extracted from 1321N1 cell membrane incubated for 1 hr by NanoBRET assay

P2Y purinoceptor 2 [2] = target: T1, P2Y purinoceptor 2; test: Displacement of 2-((5-(7-chloro-2-((3-((2-(5-(3-(5,5-difluoro-7,9-dimethyl-5H-4lambda4,5lambda4-dipyrrolo[1,2-c:2',1'-f][1,3,2]diazaborinin-3-yl)propanamido)pentanamido)ethyl)amino)-3-oxopropyl)amino)-4H-benzo[5,6]cyclohepta[1,2-d]thiazol-4-yl)-2-oxo-4-thioxo-3,4-dihydropyrimidin-1(2H)-yl)methyl)-N-(1H-tetrazol-5-yl)thiazole-4-carboxamide from NLuc fused P2Y2R (unknown origin) extracted from 1321N1 cell membrane incubated for 1 hr by NanoBRET assay
P2Y purinoceptor 2 [3] = target: T1, P2Y purinoceptor 2; remark: listed apart in the source
Description: Displacement of (E)-N6-(5-(bis(4-chlorophenyl)methyl)thiazol-2-yl)-N2-(6-(2-(4-(2-(5,5-difluoro-7-(thiophen-2-yl)-5H-4lambda4,5lambda4-dipyrrolo[1,2-c:2',1'-f][1,3,2]diazaborinin-3-yl)vinyl)phenoxy)acetamido)hexanoyl)-L-lysine from NLuc fused P2Y2R (unknown origin) extracted from 1321N1 cell membrane incubated for 1 hr by NanoBRET assay

T1 sequence (P41231 whole entry, the tested form may be a part): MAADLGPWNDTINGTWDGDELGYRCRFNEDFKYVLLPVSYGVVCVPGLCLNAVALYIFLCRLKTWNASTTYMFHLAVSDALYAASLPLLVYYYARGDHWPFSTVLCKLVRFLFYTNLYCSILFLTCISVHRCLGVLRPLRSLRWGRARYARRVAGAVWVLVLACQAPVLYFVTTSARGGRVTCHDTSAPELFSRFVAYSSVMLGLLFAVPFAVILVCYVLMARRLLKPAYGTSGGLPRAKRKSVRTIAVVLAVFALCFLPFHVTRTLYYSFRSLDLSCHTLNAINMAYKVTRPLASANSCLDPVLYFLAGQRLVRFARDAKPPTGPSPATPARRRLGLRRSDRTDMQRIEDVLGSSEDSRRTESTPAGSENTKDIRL

SMILES	Kd (P2Y purinoceptor 2 [1])	Ki (P2Y purinoceptor 2 [2])	Ki (P2Y purinoceptor 2 [3])
CCOCCNc1ncc(C(c2ccc(Cl)cc2)c2ccc(Cl)cc2)s1		~1000 µM	
CCOCCNc1nc2c(s1)C=Cc1cc(Cl)ccc1[C@@H]2c1cn(C)c(=O)[nH]c1=S (racemic)			9.12 µM

Second part, the compound after the results:

Kd (P2Y purinoceptor 2 [1])	Ki (P2Y purinoceptor 2 [2])	Ki (P2Y purinoceptor 2 [3])	SMILES
0.955 µM	3.31 µM		O=C(COc1ccc(/C=C/C2=[N+]3C(=Cc4ccc(-c5cccs5)n4[B-]3(F)F)C=C2)cc1)NCCCCCC(=O)N[C@@H](CCCNc1ncc(C(c2ccc(Cl)cc2)c2ccc(Cl)cc2)s1)C(=O)O
4.17 µM			CN(C)c1ccc2c(-c3ccc(C(=O)N[C@@H](CCCNc4ncc(C(c5ccc(Cl)cc5)c5ccc(Cl)cc5)s4)C(=O)O)cc3C(=O)[O-])c3ccc(=[N+](C)C)cc-3oc2c1
2.29 µM			O=C(COc1ccc(/C=C/C2=[N+]3C(=Cc4ccc(-c5cccs5)n4[B-]3(F)F)C=C2)cc1)NCCCCCC(=O)N[C@@H](CCNc1ncc(C(c2ccc(Cl)cc2)c2ccc(Cl)cc2)s1)C(=O)O
